Data on twelve compounds can be found in ChEMBL document CHEMBL2086253, “Synthesis and biological evaluation of cyanoguanidine derivatives of loratadine” (Bioorg Med Chem Lett, 2012).

The subject of test [1] is MCF7. The test can be described thus: Cytotoxicity against human MCF7 cells after 72 hrs by crystal violet staining. The class given is functional, cell-based. The note with it: MCF7, 72 h.
The test system of test [2] is MDA-MB-231. The test can be described thus: Cytotoxicity against human MDA-MB-231 cells after 72 hrs by crystal violet staining. In kind it is functional, cell-based. The conditions noted are these: MDA-MB-231, 72 h.
Test [3] has as its system HT-29. The test can be described thus: Cytotoxicity against human HT-29 cells after 72 hrs by crystal violet staining. In kind it is functional, cell-based. The conditions noted are these: HT-29, 72 h.
Test [4] deals with MCF7. The test can be described thus: Ratio of 5-fluorouracil IC50 to compound IC50 for human MCF7 cells. In kind it is functional.
Test [5] deals with MDA-MB-231. The test can be described thus: Ratio of 5-fluorouracil IC50 to compound IC50 for human MDA-MB-231 cells. In kind it is functional.
In test [6] the test system is HT-29. The test can be described thus: Ratio of 5-fluorouracil IC50 to compound IC50 for human HT-29 cells. In kind it is functional.
Test [7] has as its system MCF7. The test can be described thus: Ratio of loratadine IC50 to compound IC50 for human MCF7 cells. The class given is functional.
Test [8] deals with MDA-MB-231. The test can be described thus: Ratio of loratadine IC50 to compound IC50 for human MDA-MB-231 cells. In kind it is functional.
In test [9] the test system is HT-29. The test can be described thus: Ratio of loratadine IC50 to compound IC50 for human HT-29 cells. The class given is functional.
Test [10] relates to MCF7. The test can be described thus: Cytotoxicity against human MCF7 cells at 0.63 to 10 uM up to 140 hrs by crystal violet staining. The class given is functional, cell-based.
For test [11], the system named is HT-29. The test can be described thus: Cytotoxicity against human HT-29 cells at 0.63 to 10 uM up to 140 hrs by crystal violet staining. The class given is functional, cell-based.
In test [12] the test system is Mus musculus. The test can be described thus: Antiinflammatory activity in Kunming mouse assessed as inhibition of xylene-induced ear edema at 4 mg/kg, ip for 5 days relative to control. The class given is functional. The conditions noted are these: 120 h, route intraperitoneal.
The target of test [13] is T1, Prostaglandin G/H synthase 1 (Ovis aries) (UniProt P05979).
T1 sequence (whole entry): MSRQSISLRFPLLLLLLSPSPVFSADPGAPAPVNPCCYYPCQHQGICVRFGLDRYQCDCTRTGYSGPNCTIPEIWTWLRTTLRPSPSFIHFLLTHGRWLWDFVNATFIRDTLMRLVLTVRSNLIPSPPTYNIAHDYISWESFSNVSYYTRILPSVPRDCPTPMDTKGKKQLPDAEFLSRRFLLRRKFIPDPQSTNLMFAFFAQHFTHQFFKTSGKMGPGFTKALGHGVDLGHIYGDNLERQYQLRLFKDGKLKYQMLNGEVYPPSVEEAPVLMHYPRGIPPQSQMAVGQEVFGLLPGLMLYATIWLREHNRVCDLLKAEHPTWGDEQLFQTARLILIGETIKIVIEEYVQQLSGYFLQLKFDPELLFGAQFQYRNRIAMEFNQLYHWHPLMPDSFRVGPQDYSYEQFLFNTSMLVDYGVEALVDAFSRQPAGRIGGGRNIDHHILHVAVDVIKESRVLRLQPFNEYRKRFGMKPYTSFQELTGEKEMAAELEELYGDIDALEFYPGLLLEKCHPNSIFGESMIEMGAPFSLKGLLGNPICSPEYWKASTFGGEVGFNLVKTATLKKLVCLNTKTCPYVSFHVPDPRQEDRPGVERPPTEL
The test can be described thus: Inhibition of isolated ovine COX-1 at 10 uM by ELISA.

Test [14] relates to Mus musculus. The test can be described thus: Antiinflammatory activity in Kunming mouse assessed as inhibition of xylene-induced ear edema at 30 mg/kg, ip for 5 days relative to control. In kind it is functional. The conditions noted are these: 120 h, route intraperitoneal.

Molecules are shown by their SMILES. Calls of active or inactive are those of the source. The calls are words filed in the database; no cut-off is given here.

What is called IC50 is the concentration that inhibits the measured activity by half. Higher therefore signals lower potency. As a reminder, the inhibition in vivo is the change of the read-out against control, counted positive when it falls. For `CCCCCCCCN/C(=N/C#N)N1CCC(=C2c3ccc(Cl)cc3CCc3cccnc32)CC1`, the IC50 was 1.4 µM in the test with MCF7 [1], 4.1 µM in the test on MDA-MB-231 [2] and 2 µM in the test with HT-29 [3]. Moreover, the “Ratio IC50” value with MCF7 [4], in the test on MDA-MB-231 [5], in the test with HT-29 [6], in the test on MCF7 [7], with MDA-MB-231 [8] and with HT-29 [9] was 2 in each case. Besides, the outcome in the test with MCF7 [10] and with HT-29 [11] was Active. Moreover, the inhibition in vivo at 4 mg/kg with Mus musculus [12] amounted to 15.6%.
Turning to `COc1ccc(CCN/C(=N/C#N)N2CCC(=C3c4ccc(Cl)cc4CCc4cccnc43)CC2)cc1OC`, the IC50 in the test on MCF7 [1] came to 7.1 µM; in the test with MDA-MB-231 [2] it was 18.2 µM; in the test on HT-29 [3] it was 5.7 µM. For the same compound, the inhibition in vivo at 4 mg/kg in the test with Mus musculus [12] was 21.7%.
The corresponding values for `N#C/N=C(/NCc1ccccc1)N1CCC(=C2c3ccc(Cl)cc3CCc3cccnc32)CC1` are 2.9 µM, 2.7 µM, 3.1 µM and 13%.
As for `CCCCN/C(=N/C#N)N1CCC(=C2c3ccc(Cl)cc3CCc3cccnc32)CC1`, the figures for the IC50 with MCF7 [1], in the test on MDA-MB-231 [2] and in the test with HT-29 [3] were 3.9 µM, 3.1 µM and 4 µM, respectively. For the same compound, the inhibition in vivo at 4 mg/kg in the test with Mus musculus [12] turned out to be 17.4%.
In the case of `N#C/N=C(/NCCc1ccccc1)N1CCC(=C2c3ccc(Cl)cc3CCc3cccnc32)CC1`, the results for the IC50 in the test on MCF7 [1], in the test on MDA-MB-231 [2] and in the test with HT-29 [3] were 2.3 µM, 2.6 µM and 3.2 µM, respectively. For the same compound, the inhibition in vivo at 4 mg/kg in the test on Mus musculus [12] was 13%.
Regarding `N#C/N=C(/NCCc1ccc2c(c1)OCO2)N1CCC(=C2c3ccc(Cl)cc3CCc3cccnc32)CC1`, the results for the concentration for half-maximal inhibition (IC50) in the test with MCF7 [1], with MDA-MB-231 [2] and in the test on HT-29 [3] were 8 µM, 12.9 µM and 6.5 µM, respectively. In the test with Mus musculus [12], the inhibition in vivo at 4 mg/kg amounted to 13%.
The inhibition is the percentage by which the read-out fell short of the control. Regarding `CC(N/C(=N/C#N)N1CCC(=C2c3ccc(Cl)cc3CCc3cccnc32)CC1)c1ccccc1` (centres undefined), the half-inhibitory concentration (IC50) with MCF7 [1] was 4 µM; with MDA-MB-231 [2] it was 6.9 µM; with HT-29 [3], 3.7 µM. The inhibition in vivo at 4 mg/kg in the test with Mus musculus [12] turned out to be 26.1%. Also, in [13], the inhibition was determined as 4.9%.
In test [13], `COc1ccc2c(c1)c(CC(=O)O)c(C)n2C(=O)c1ccc(Cl)cc1` displayed an inhibition of 56%.
`O=c1[nH]cc(F)c(=O)[nH]1` [FLUOROURACIL]: in the test on MCF7 [1], the IC50 worked out at 4.7 µM.
Consider `N#C/N=C(/NC1CCCCC1)N1CCC(=C2c3ccc(Cl)cc3CCc3cccnc32)CC1`, for which the values for the IC50 with MCF7 [1], with MDA-MB-231 [2] and in the test with HT-29 [3] were 3.9 µM, 1.9 µM and 4 µM, respectively. Also, the inhibition in vivo at 4 mg/kg in the test on Mus musculus [12] was 17.4%.
In the case of `CC(C)Cc1ccc(C(C)C(=O)O)cc1` (centres undefined) [IBUPROFEN], in the test on Mus musculus [12], the inhibition in vivo at 4 mg/kg is 8.22%. Besides, the inhibition in vivo at 30 mg/kg in the test with Mus musculus [14] was found to be 39.1%.
For the compound `CCCCCN/C(=N/C#N)N1CCC(=C2c3ccc(Cl)cc3CCc3cccnc32)CC1`, the results for the half-inhibitory concentration (IC50) with MCF7 [1], in the test with MDA-MB-231 [2] and in the test with HT-29 [3] were 3.5 µM, 1.7 µM and 4.4 µM, respectively. Also, the inhibition in vivo at 4 mg/kg with Mus musculus [12] was 13%.
